A short description of series [1]: dissolution rate of the solid form. It counts as physicochemical. The conditions noted are these: amorphous form compared with crystalline form; test conditions not given.
Series [2] is described as follows: stability of the solid form over time. Particulars: test conditions not given. Type of series: physicochemical.

For the compound `Cc1c(C(=O)NN2CCCCC2)nn(-c2ccc(Cl)cc2Cl)c1-c1ccc(Cl)cc1` [amorphous rimonabant form], the dissolution rate entry in series [1] is “better dissolution rate”. For the same compound, the stability entry in series [2] is “highly stable”. With `Cc1c(C(=O)NN2CCCCC2)nn(-c2ccc(Cl)cc2Cl)c1-c1ccc(Cl)cc1.O` [crystalline rimonabant hydrate], the stability entry in series [2] is on record as “stable over time”.

For the origin of these results see US20100076022A1, “NOVEL POLYMORPHS OF RIMONABANT” (HETERO DRUGS LIMITED, priority 2006, published 2010).
